This note sets out measurements from patent publication US11174268B2, “Benzenesulfonamide compouds and their use as therapeutic agents” (Xenon Pharmaceuticals Inc., priority 2016, dated 2021).

The structures appear in SMILES notation. Where a name gives a salt, the structure may show the parent alone. Read-outs that look alike come from different tables or passages of the source.

Data set [1] addresses T1, NaV1.6 (Homo sapiens (Human), UniProt Q9UQD0). Nature of the data set: Sodium Influx Assay (Flux), NaV1.6.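 Further: Tetracycline-induced cells, compounds applied for one hour at room temperature with modulators holding channels open, IC50 from percent inhibition of sodium influx.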 The data set is classed as cell-based. The conditions noted are these: Trex HEK293 cells, ANG2 dye, inactivated state.
The target of data set [2] is T1, NaV1.6. Put plainly: Electrophysiological Assay (EP), patch voltage clamp, NaV1.6.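 Further: sodium current recorded at ambient temperature, channels held inactivated then briefly repolarized to −150 mV for 20 ms before a test pulse, control currents in 0.5% DMSO.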 The data set is classed as cell-based. The conditions noted are these: HEK-293 cells, whole-cell patch clamp.
For data set [3], the target named is T2, NaV1.5 (Homo sapiens (Human), UniProt Q14524). Put plainly: Electrophysiological Assay (EP), patch voltage clamp, NaV1.5. Type of data set: cell-based. The conditions noted are these: HEK-293 cells, whole-cell patch clamp.
T2 sequence (Q14524 other isoform, or with tags, fused parts or gaps): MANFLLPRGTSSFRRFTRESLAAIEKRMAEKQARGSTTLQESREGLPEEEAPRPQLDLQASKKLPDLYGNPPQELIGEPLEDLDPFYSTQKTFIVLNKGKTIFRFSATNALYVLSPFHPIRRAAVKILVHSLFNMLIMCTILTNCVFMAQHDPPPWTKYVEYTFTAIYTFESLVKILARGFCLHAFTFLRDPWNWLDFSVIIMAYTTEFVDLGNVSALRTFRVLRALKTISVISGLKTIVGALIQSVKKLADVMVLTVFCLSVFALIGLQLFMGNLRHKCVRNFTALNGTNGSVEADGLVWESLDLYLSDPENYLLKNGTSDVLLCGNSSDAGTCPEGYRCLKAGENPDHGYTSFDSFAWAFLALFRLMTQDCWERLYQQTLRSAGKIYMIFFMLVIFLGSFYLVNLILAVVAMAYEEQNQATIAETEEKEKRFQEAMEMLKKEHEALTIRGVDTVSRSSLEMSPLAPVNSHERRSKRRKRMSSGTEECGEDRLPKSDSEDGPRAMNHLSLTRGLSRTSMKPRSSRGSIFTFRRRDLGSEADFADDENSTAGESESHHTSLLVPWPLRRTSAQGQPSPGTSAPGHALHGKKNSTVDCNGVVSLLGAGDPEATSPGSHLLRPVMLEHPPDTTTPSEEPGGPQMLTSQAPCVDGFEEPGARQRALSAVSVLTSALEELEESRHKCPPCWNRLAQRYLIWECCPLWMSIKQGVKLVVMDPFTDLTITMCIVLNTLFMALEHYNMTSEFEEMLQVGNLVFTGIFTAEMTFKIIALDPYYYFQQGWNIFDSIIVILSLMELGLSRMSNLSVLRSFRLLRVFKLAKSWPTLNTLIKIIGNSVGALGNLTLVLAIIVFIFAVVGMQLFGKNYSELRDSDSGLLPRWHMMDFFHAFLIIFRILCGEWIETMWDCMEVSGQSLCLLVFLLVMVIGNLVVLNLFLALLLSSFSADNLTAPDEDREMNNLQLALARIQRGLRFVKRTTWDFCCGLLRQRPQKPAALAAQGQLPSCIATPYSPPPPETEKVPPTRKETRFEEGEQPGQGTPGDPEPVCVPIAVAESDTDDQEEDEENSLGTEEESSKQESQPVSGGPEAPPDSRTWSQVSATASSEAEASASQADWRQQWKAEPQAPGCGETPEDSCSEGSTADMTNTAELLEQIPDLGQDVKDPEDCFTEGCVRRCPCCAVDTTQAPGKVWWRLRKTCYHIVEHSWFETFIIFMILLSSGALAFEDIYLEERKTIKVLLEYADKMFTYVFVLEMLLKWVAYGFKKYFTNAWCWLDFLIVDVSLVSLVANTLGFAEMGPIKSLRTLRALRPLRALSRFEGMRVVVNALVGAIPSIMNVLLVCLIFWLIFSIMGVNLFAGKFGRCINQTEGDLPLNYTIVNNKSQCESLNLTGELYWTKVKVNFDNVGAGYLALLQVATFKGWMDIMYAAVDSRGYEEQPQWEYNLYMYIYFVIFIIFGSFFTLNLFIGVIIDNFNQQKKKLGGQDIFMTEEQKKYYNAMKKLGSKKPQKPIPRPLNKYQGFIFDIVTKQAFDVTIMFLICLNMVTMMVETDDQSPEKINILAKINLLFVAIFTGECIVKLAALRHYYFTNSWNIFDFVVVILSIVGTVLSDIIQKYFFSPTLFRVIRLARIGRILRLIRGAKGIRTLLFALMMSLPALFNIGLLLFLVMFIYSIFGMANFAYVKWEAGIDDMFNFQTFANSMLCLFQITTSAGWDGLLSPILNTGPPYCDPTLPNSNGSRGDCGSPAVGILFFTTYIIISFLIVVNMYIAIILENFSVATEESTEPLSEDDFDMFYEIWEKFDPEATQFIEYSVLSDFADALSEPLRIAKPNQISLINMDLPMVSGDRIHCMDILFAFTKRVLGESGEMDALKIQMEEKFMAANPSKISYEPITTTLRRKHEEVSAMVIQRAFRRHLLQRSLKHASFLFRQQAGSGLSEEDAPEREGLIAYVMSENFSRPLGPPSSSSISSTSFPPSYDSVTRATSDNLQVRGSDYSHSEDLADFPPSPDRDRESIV
Data set [4] has as its target T3, NaV1.1 (Homo sapiens (Human), UniProt P35498). Put plainly: Sodium Influx Assay (Flux), NaV1.1.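 Further: channels co-expressed with human β1 subunit and held open by modulators, cells exposed to compounds for one hour at room temperature, IC50 from percent inhibition of influx.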 Type of data set: cell-based. The note with it: Trex HEK293 cells, ANG2 dye, inactivated state.
The target of data set [5] is T3, NaV1.1. Put plainly: Electrophysiological Assay (EP), patch voltage clamp, NaV1.1.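 Further: sodium current block measured at ambient temperature, holding at fully inactivating potential, 20 ms repolarization to −150 mV before test pulse, versus 0.5% DMSO control currents.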 Type of data set: cell-based. The note with it: HEK-293 cells, whole-cell patch clamp.
The target in data set [6] is T2, NaV1.5. Nature of the data set: Sodium Influx Assay (Flux), NaV1.5. The conditions noted are these: read-out: Flux NaV1.5 IC50; Trex HEK293 cells, ANG2 dye, inactivated state.
In data set [7] the target is T2, NaV1.5.

T1 sequence (Q9UQD0 whole entry): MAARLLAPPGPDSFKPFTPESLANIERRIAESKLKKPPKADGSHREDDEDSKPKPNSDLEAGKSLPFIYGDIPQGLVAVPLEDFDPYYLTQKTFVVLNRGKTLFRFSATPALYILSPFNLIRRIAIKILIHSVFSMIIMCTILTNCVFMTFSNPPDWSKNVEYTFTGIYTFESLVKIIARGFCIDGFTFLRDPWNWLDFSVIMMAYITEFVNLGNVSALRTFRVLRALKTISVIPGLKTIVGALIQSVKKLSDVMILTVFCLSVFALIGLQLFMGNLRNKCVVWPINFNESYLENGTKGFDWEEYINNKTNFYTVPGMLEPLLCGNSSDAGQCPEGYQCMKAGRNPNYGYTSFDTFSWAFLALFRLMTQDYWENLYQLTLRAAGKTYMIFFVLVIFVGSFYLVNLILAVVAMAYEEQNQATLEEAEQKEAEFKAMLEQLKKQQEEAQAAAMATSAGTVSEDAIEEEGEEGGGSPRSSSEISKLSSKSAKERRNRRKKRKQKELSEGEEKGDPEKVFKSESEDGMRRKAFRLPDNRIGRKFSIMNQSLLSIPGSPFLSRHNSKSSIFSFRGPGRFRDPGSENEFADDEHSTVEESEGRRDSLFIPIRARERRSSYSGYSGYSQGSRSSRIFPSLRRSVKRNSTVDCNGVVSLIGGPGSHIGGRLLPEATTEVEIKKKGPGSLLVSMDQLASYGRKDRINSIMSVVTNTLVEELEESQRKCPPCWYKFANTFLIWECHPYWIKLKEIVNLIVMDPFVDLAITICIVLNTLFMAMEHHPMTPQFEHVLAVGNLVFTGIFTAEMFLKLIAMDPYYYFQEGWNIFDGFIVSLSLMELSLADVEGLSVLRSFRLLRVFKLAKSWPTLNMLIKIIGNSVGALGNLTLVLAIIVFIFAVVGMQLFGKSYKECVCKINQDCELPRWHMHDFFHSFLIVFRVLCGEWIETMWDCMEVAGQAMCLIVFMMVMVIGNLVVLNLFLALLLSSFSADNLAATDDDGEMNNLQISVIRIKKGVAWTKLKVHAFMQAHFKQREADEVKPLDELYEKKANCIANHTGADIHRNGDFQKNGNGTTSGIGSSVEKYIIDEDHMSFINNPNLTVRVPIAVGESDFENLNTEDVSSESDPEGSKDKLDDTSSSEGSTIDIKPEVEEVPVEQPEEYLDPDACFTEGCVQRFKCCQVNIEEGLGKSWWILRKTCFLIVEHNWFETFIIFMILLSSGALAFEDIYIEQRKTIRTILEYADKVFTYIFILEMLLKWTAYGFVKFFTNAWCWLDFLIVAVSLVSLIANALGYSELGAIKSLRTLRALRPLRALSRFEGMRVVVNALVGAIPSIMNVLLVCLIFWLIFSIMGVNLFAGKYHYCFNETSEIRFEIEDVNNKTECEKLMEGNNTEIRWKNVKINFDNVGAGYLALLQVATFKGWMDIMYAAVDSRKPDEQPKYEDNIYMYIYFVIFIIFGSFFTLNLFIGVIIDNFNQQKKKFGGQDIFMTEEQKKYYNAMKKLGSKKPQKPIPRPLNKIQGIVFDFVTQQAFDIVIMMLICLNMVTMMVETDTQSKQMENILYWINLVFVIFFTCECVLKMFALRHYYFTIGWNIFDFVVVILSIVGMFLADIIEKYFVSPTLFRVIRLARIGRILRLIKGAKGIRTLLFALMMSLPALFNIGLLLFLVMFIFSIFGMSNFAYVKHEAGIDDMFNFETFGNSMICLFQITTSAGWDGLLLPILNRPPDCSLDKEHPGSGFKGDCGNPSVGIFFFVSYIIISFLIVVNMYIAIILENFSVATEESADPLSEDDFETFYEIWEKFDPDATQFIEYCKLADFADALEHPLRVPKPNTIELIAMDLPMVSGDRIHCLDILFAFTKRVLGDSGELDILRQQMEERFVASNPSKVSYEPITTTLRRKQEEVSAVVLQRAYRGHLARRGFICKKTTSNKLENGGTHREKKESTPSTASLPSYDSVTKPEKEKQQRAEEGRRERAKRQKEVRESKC

For `C[C@H](Nc1cc(F)c(S(=O)(=O)Nc2cscn2)cc1Cl)c1cc(Cl)ccc1F` [Example 5, (S)-5-chloro-4-((1-(5-chloro-2-fluorophenyl)ethyl)amino)-2-fluoro-N-(thiazol-4-yl)benzenesulfonamide], the IC50 in data set [1] came to 0.785 µM; in data set [2], 0.152 µM; in data set [3], 10 µM; in data set [4], 4.83 µM; in data set [5], 10 µM; in data set [6] it was 5.31 µM.

Turning to `C[C@H](Nc1cc(F)c(S(=O)(=O)Nc2nccs2)cc1Cl)c1ccccc1F` [Example 45, (S)-5-chloro-2-fluoro-4-((1-(2-fluorophenyl)ethyl)amino)-N-(thiazol-2-yl)benzenesulfonamide], the IC50 was determined as 0.108 µM in data set [1]; 0.013 µM in data set [2]; 5.15 µM in data set [3]; 1.18 µM in data set [4]; 0.539 µM in data set [5]; 6.26 µM in data set [6].

As for `O=S(=O)(Nc1nccs1)c1cc(Cl)c(NCc2cccc3ccncc23)cc1F` [Example 61, 5-chloro-2-fluoro-4-((isoquinolin-8-ylmethyl)amino)-N-(thiazol-2-yl)benzenesulfonamide], the IC50 in data set [1] came to 0.021 µM; in data set [2] it was 0.004 µM; in data set [3] it was 10 µM; in data set [4], 1.13 µM; in data set [5], 0.283 µM; in data set [6], 8.91 µM.

Consider `C[C@H](Oc1cc(F)c(S(=O)(=O)Nc2nccs2)cc1Cl)c1ccccc1F` [Example 116, (S)-5-chloro-2-fluoro-4-(1-(2-fluorophenyl)ethoxy)-N-(thiazol-2-yl)benzenesulfonamide], for which the half-inhibitory concentration (IC50) in data set [1] stood at 0.477 µM; in data set [2] it was 0.037 µM; in data set [3] it was 14.3 µM; in data set [4] it was 5.78 µM; in data set [5] it was 9.89 µM; in data set [6], 4.58 µM.

In the case of `C[C@H]1CCCN1Cc1cccc(F)c1CNc1cc(F)c(S(=O)(=O)Nc2cscn2)c(F)c1` [Example 158, (S)-2,6-difluoro-4-((2-fluoro-6-((2-methylpyrrolidin-1-yl)methyl)benzyl)amino)-N-(thiazol-4-yl)benzenesulfonamide formate], the IC50 in data set [1] came out at 0.126 µM; in data set [4], 30 µM; in data set [7], 30 µM.

Consider `CN(Cc1cccc(F)c1CNc1cc(F)c(S(=O)(=O)Nc2cscn2)c(F)c1)CC1CC1` [Example 187, 4-((2-(((cyclopropylmethyl)(methyl)amino)methyl)-6-fluorobenzyl)amino)-2,6-difluoro-N-(thiazol-4-yl)benzenesulfonamide formate], for which the IC50 in data set [1] was 0.065 µM; in data set [4], 12.4 µM; in data set [7] it was 30 µM.

In the case of `C[C@H](Nc1ccc(S(=O)(=O)Nc2cscn2)c(F)c1Cl)c1cc(Cl)ccc1F` [Example 190, (S)-3-chloro-4-((1-(5-chloro-2-fluorophenyl)ethyl)amino)-2-fluoro-N-(thiazol-4-yl)benzenesulfonamide], the IC50 was 0.571 µM in data set [1]; 0.055 µM in data set [2]; 30 µM in data set [3]; 13.4 µM in data set [4]; 9.71 µM in data set [5]; 25.8 µM in data set [6].

As to `CC1(C)CCN1Cc1c(F)cccc1CNc1cc(F)c(S(=O)(=O)Nc2cscn2)c(F)c1` [Example 198, 4-((2-((2,2-dimethylazetidin-1-yl)methyl)-3-fluorobenzyl)amino)-2,6-difluoro-N-(thiazol-4-yl)benzenesulfonamide formate], the results for the IC50 in data set [1], in data set [4] and in data set [7] were 0.391 µM, 25.8 µM and 30 µM, respectively.

Take `C[C@H](Nc1cc(F)c(S(=O)(=O)Nc2cscn2)cc1Cl)c1cc(CCN2CCC2)ccc1F` [Example 257, (S)-4-((1-(5-(2-(azetidin-1-yl)ethyl)-2-fluorophenyl)ethyl)amino)-5-chloro-2-fluoro-N-(thiazol-4-yl)benzenesulfonamide formate]: the IC50 in data set [1] worked out at 0.49 µM; in data set [4] it was 6.1 µM; in data set [7] it was 8.39 µM.

In the case of `O=S(=O)(Nc1cscn1)c1c(F)cc(NCc2ccccc2CN2CCC2)cc1F` [Example 272, 4-((2-(azetidin-1-ylmethyl)benzyl)amino)-2,6-difluoro-N-(thiazol-4-yl)benzenesulfonamide formate], the half-maximal inhibitory concentration (IC50) in data set [1] was determined as 0.163 µM; in data set [2], 0.031 µM; in data set [3] it was 30 µM; in data set [4], 20.7 µM; in data set [5], 10 µM; in data set [6], 30 µM.

Turning to `CC[C@H](Nc1cc(F)c(S(=O)(=O)Nc2ccncn2)cc1Cl)c1ccccc1Cl` [Example 277, (S)-5-chloro-4-((1-(2-chlorophenyl)propyl)amino)-2-fluoro-N-(pyrimidin-4-yl)benzenesulfonamide 2,2,2-trifluoroacetate], the IC50 was 0.38 µM in data set [1]; 0.043 µM in data set [2]; 10 µM in data set [3]; 3.77 µM in data set [4]; 5.59 µM in data set [5]; 9.39 µM in data set [6].

Regarding `O=S(=O)(Nc1cscn1)c1c(F)cc(NCc2c(F)ccc(F)c2CN2CCC2)cc1F` [Example 283, 4-((2-(azetidin-1-ylmethyl)-3,6-difluorobenzyl)amino)-2,6-difluoro-N-(thiazol-4-yl)benzenesulfonamide], the IC50 in data set [1] was found to be 0.126 µM; in data set [2] it was 0.011 µM; in data set [3], 30 µM; in data set [4] it was 14.9 µM; in data set [5], 14.5 µM; in data set [6], 28 µM.
